# Values of other authors, collected in patent US8263638B2, “Dosing regimens for ion channel modulating compounds” (priority 2004, dated 2012).
# Like-named read-outs stand apart in the source and are kept apart here.
# System: rabbit Purkinje fibers
# Settings: cited from earlier work
SMILES,"increase of APD90 (10 nM, rabbit Purkinje fibers, BCL=1000 ms) [%]","increase of APD90 (10 μM, rabbit) [%]"
CN(CCOc1ccc(NS(C)(=O)=O)cc1)CCc1ccc(NS(C)(=O)=O)cc1 [dofetilide],83,
C=C[C@H]1C[N@@]2CC[C@H]1C[C@@H]2[C@@H](O)c1ccnc2ccc(OC)cc12 [quinidine],,93
